Reference: US7115629B2, “Carbamates derived from arylalkylamines” (Laboratorios S.A.L.V.A.T., S.A., priority 2000, dated 2006)
Counter-ions that a name gives are not always drawn. Like-named read-outs stand apart in the source and are kept apart here.

Tests used:
[1] = molecular target: T1, human M2 receptors (Homo sapiens, UniProt P08172); test: Binding test to cloned human M2 muscarinic receptor ([3H]-NMS displacement, CHO-K1 membranes), reported as M2/M3 ratio; details: value greater than 1 indicates selectivity for the M3 receptor
T1 construct: purchased Receptor Biology; host or cells: CHO-K1 cells transfected with the human receptor (membranes)
T1 sequence (P08172 1-466): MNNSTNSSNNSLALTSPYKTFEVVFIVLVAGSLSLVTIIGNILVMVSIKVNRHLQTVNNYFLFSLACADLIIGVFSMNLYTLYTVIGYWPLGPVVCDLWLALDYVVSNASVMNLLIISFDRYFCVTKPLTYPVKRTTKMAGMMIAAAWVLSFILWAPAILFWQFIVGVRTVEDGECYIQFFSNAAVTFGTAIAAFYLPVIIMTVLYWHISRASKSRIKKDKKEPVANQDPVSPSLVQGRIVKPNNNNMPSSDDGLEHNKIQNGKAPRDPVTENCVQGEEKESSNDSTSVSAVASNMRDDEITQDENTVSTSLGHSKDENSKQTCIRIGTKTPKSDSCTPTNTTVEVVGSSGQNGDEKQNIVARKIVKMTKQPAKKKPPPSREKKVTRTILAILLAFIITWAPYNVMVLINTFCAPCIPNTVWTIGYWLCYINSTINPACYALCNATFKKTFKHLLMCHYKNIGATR
Procedure: (§1) Membranes from CHO—K1 cells transfected with human M2 or M3 receptors (Receptor Biology) were used. The summarised experimental procedure for both receptors was the following: membranes (15–20 μg) were incubated with [^3H]-NMS (0.3–0.5 nM) for 60 min at 25° C., in presence or absence of the antagonists. Incubation was carried out in 96 wells polystyrene microplates in a total incubation volume of 0.2 mL of PBS pH 7.4. Non specific binding was determined in parallel assays in presence of atropine (5 μM). Samples were filtered through type GF/C glass fibre, preincubated with PEI 0.3%. Filters were washed 3–4 times with 50 mM Tris-HCl, 0.9% NaCl, pH 7.4 at 4° C., and dried at 50° C. for 45 min. Filter bound radioactivity was quantified by liquid scintillation counting.
(§2) For the calculation of the inhibition constant (Ki), displacement curves were analysed by non-linear regression (GraphPad Prism). Dissociation constant (KD) of [^3H]-NMS for each receptor was obtained through the saturation curves obtained in the same conditions as the experiments carried out with the antagonists.

[2] = molecular target: T2, human M3 receptors (Homo sapiens, UniProt P20309); test: Binding test to cloned human M3 muscarinic receptor ([3H]-NMS displacement, CHO-K1 membranes)
T2 construct: purchased Receptor Biology; host or cells: CHO-K1 cells transfected with the human receptor (membranes)
Procedure: as §1, §2

[3] = membranes of CHO-K1 cells transfected with human M3, [3H]-NMS, mean of two independent experiments in duplicate, read-out: M3 (human M3 antagonist activity, binding affinity constant Ki)

T2 sequence (P20309 whole entry): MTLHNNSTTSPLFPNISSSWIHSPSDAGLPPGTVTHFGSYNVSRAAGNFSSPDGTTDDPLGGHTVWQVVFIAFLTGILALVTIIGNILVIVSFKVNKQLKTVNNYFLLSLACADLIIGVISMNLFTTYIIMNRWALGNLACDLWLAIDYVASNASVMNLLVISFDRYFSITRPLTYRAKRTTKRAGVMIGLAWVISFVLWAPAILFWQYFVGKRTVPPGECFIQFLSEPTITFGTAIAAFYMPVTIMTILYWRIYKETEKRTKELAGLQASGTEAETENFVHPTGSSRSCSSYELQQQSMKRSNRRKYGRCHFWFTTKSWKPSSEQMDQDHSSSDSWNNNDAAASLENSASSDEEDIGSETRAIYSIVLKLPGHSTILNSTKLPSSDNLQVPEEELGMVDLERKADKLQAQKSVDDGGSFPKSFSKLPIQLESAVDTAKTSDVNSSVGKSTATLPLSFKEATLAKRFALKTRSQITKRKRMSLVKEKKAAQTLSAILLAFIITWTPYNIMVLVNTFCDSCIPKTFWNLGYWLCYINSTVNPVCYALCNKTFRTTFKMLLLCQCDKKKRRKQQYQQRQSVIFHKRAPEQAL

Compound: COc1ccc(CN(C(=O)OC2CN3CCC2CC3)c2ccccc2F)cc1F (stereo not shown) [Example 32]
- M2/M3 (ratio between M2 and M3 receptor affinities) [1]: 19
- Ki [2, 3]: 3.3 nM

Compound: COc1ccc(CN(C(=O)OC2CN3CCC2CC3)c2cccc(Cl)c2)c(F)c1 (stereo not shown) [Example 23]
- M2/M3 (ratio between M2 and M3 receptor affinities) [1]: 118
- Ki [2, 3]: 0.73 nM

Compound: O=C(OC1CN2CCC1CC2)N(Cc1ccc(F)c(Cl)c1)c1ccccc1 (stereo not shown) [Example 28]
- M2/M3 (ratio between M2 and M3 receptor affinities) [1]: 35
- Ki [2, 3]: 1.5 nM

Compound: O=C(OC1CN2CCC1CC2)N(Cc1ccc(F)cc1)c1cccc(F)c1F (stereo not shown) [Example 18]
- M2/M3 (ratio between M2 and M3 receptor affinities) [1]: 154
- Ki [2, 3]: 0.92 nM

Compound: O=C(OC1CN2CCC1CC2)N(CC1CCCCC1)c1ccccc1F (stereo not shown) [Example 57]
- M2/M3 (ratio between M2 and M3 receptor affinities) [1]: 300
- Ki [2, 3]: 0.025 nM

Compound: O=C(OC1CN2CCC1CC2)N(Cc1ccc(O)cc1)c1ccccc1 (stereo not shown) [Example 47]
- M2/M3 (ratio between M2 and M3 receptor affinities) [1]: 33
- Ki [2, 3]: 5.7 nM

Compound: O=C(OC1CN2CCC1CC2)N(Cc1ccccc1O)c1ccccc1F (stereo not shown) [Example 45]
- M2/M3 (ratio between M2 and M3 receptor affinities) [1]: 37
- Ki [2, 3]: 0.18 nM

Compound: O=C(OC1CN2CCC1CC2)N(CC1CC1)c1ccccc1 (stereo not shown) [Example 54]
- M2/M3 (ratio between M2 and M3 receptor affinities) [1]: 32
- Ki [2, 3]: 0.6 nM

Compound: Cc1cccc(N(Cc2cc(F)c(F)cc2F)C(=O)OC2CN3CCC2CC3)c1 (stereo not shown) [Example 35]
- M2/M3 (ratio between M2 and M3 receptor affinities) [1]: 839
- Ki [2, 3]: 0.031 nM

Compound: Cc1cccc(N(CC2CCCC2)C(=O)OC2CN3CCC2CC3)c1 (stereo not shown) [Example 56]
- M2/M3 (ratio between M2 and M3 receptor affinities) [1]: 37
- Ki [2, 3]: 0.75 nM

Compound: CCc1ccc(CN(C(=O)OC2CN3CCC2CC3)c2ccccc2)cc1 (stereo not shown) [Example 40]
- M2/M3 (ratio between M2 and M3 receptor affinities) [1]: 92
- Ki [2, 3]: 0.066 nM

Compound: Cc1ccccc1N(Cc1ccc(CO)cc1)C(=O)OC1CN2CCC1CC2 (stereo not shown) [Example 42]
- M2/M3 (ratio between M2 and M3 receptor affinities) [1]: 38
- Ki [2, 3]: 1.17 nM

Compound: Cc1cccc(N(Cc2ccccc2)C(=O)OC2CN3CCC2CC3)c1 (stereo not shown) [Example 10]
- M2/M3 (ratio between M2 and M3 receptor affinities) [1]: 44
- Ki [2, 3]: 0.14 nM

Compound: Cc1cccc(N(Cc2ccccc2C)C(=O)OC2CN3CCC2CC3)c1 (stereo not shown) [Example 38]
- M2/M3 (ratio between M2 and M3 receptor affinities) [1]: 40
- Ki [2, 3]: 0.23 nM

Compound: Cc1cccc(C)c1N(Cc1ccccc1)C(=O)OC1CN2CCC1CC2 (stereo not shown) [Example 11]
- M2/M3 (ratio between M2 and M3 receptor affinities) [1]: 11
- Ki [2, 3]: 6.12 nM

Compound: Cc1ccccc1N(Cc1ccccc1)C(=O)OC1C[N+]2(C)CCC1CC2.[I-] (stereo not shown) [Example 65]
- M2/M3 (ratio between M2 and M3 receptor affinities) [1]: 13
- Ki [2, 3]: 14.3 nM

Compound: Cc1ccc(F)c(N(Cc2ccccc2F)C(=O)OC2CN3CCC2CC3)c1 (stereo not shown) [Example 15]
- M2/M3 (ratio between M2 and M3 receptor affinities) [1]: 21
- Ki [2, 3]: 0.53 nM

Compound: O=C(OC1CN2CCC1CC2)N(CC1=CCCCC1)c1ccccc1F (stereo not shown) [Example 60]
- M2/M3 (ratio between M2 and M3 receptor affinities) [1]: 48
- Ki [2, 3]: 0.02 nM

Compound: Cc1ccc(F)c(N(Cc2ccc(Cl)cc2)C(=O)OC2CN3CCC2CC3)c1 (stereo not shown) [Example 19]
- M2/M3 (ratio between M2 and M3 receptor affinities) [1]: 23
- Ki [2, 3]: 1.2 nM

Compound: C=C(C)C1CCC(CN(C(=O)OC2CN3CCC2CC3)c2cccc(C)c2)CC1 (stereo not shown) [Example 59]
- M2/M3 (ratio between M2 and M3 receptor affinities) [1]: 90
- Ki [2, 3]: 0.77 nM

Compound: Cc1ccccc1N(Cc1cc(F)c(F)cc1F)C(=O)OC1C[N+]2(C)CCC1CC2.[I-] (stereo not shown) [Example 66]
- M2/M3 (ratio between M2 and M3 receptor affinities) [1]: 18
- Ki [2, 3]: 4.7 nM

Compound: O=C(OC1CN2CCC1CC2)N(Cc1ccccc1)c1ccccc1 (stereo not shown) [Example 1, 3-quinuclidyl N-benzyl-N-phenylcarbamate, hydrochloride]
- M2/M3 (ratio between M2 and M3 receptor affinities) [1]: 10
- Ki [2]: 0.45 nM

Compound: O=C(OC1CN2CCC1CC2)N(CC1CC=CCC1)c1cccc(Cl)c1 (stereo not shown) [Example 61]
- M2/M3 (ratio between M2 and M3 receptor affinities) [1]: 74
- Ki [2, 3]: 0.35 nM

Compound: O=C(OC1CN2CCC1CC2)N(Cc1ccc(Cl)c(F)c1)c1ccccc1F (stereo not shown) [Example 27]
- M2/M3 (ratio between M2 and M3 receptor affinities) [1]: 92
- Ki [2, 3]: 0.37 nM

Compound: COc1ccc(F)c(CN(C(=O)OC2CN3CCC2CC3)c2ccccc2)c1 (stereo not shown) [Example 25]
- M2/M3 (ratio between M2 and M3 receptor affinities) [1]: 19
- Ki [2, 3]: 1.7 nM

Compound: N#Cc1ccc(N(Cc2ccccc2)C(=O)OC2CN3CCC2CC3)cc1 (stereo not shown) [Example 13]
- M2/M3 (ratio between M2 and M3 receptor affinities) [1]: 17
- Ki [2, 3]: 4.31 nM
